ChEMBL document CHEMBL3885861, “Open TG-GATES”

Species: Rattus norvegicus
Test: Open TG-GATES - Regimen: Single
Assay type: toxicity, organism-based, Sprague-Dawley
Design: regimen Single, gender Male, age 6 weeks
Conditions: in vivo, po, route gavage; for APTT / Bas / Eos / Fbg / Hb / Ht / Lym / MCH / MCHC / MCV / Mono / Neu / PT / Plat / RBC / Ret / WBC: tissue Blood; for KIDNEY_L / KIDNEY_R / KIDNEY_TOTAL: tissue Kidney; for LIVER: tissue Liver; for A/G / ALP / ALT / AST / BUN / CRE / Ca / Cl / DBIL / GLC / IP / K / LDH / Na / PL / RALB / TBIL / TC / TG / TP / gamma-GTP: tissue Plasma
[1] = 0 mg/kg, 3 h, dose level Control
[2] = 0 mg/kg, 6 h, dose level Control
[3] = 0 mg/kg, 9 h, dose level Control
[4] = 0 mg/kg, 24 h, dose level Control

## CCSCC[C@H](N)C(=O)O [ETHIONINE]
[1]
  TERMINAL_BW: 218.5 g
  APTT: 19 s
  Bas: 0%
  Eos: 1%
  Fbg: 216.6 mg/dL
  Hb: 13.4 g/dL
  Ht: 39.8%
  Lym: 79.6%
  MCH: 21.1 pg
  MCHC: 33.5%
  MCV: 62.9 fL
  Mono: 3%
  Neu: 16.4%
  PT: 12.5 s
  Plat: 122 x10_4/uL
  RBC: 632.8 x10_4/ul
  Ret: 7.4%
  WBC: 83.3 x10_2/uL
  KIDNEY_L: 1 g
  KIDNEY_R: 1 g
  KIDNEY_TOTAL: 1.9 g
  LIVER: 10.3 g
  A/G: 1.6
  ALP: 974.2 IU/L
  ALT: 35.6 IU/L
  AST: 64.4 IU/L
  BUN: 11.6 mg/dL
  CRE: 0.4 mg/dL
  Ca: 10.6 mg/dL
  Cl: 100.6 meq/L
  DBIL: 0.066 mg/dL
  GLC: 196.6 mg/dL
  IP: 9.3 mg/dL
  K: 3.9 meq/L
  LDH: 172.8 IU/L
  Na: 140.2 meq/L
  PL: 136.8 mg/dL
  RALB: 3.3 g/dL
  TBIL: 0.1 mg/dL
  TC: 70.6 mg/dL
  TG: 80.8 mg/dL
  TP: 5.4 g/dL
  gamma-GTP: 1 IU/L
[2]
  TERMINAL_BW: 211.6 g
  APTT: 18.9 s
  Bas: 0%
  Eos: 1%
  Fbg: 229 mg/dL
  Hb: 13.6 g/dL
  Ht: 40%
  Lym: 81.8%
  MCH: 21.3 pg
  MCHC: 34.1%
  MCV: 62.5 fL
  Mono: 2.8%
  Neu: 13.2%
  PT: 12.8 s
  Plat: 111.7 x10_4/uL
  RBC: 640.6 x10_4/ul
  Ret: 6.9%
  WBC: 79.1 x10_2/uL
  KIDNEY_L: 1 g
  KIDNEY_R: 0.9 g
  KIDNEY_TOTAL: 1.9 g
  LIVER: 9 g
  A/G: 1.5
  ALP: 1036.8 IU/L
  ALT: 38.6 IU/L
  AST: 70.6 IU/L
  BUN: 10.6 mg/dL
  CRE: 0.4 mg/dL
  Ca: 10.4 mg/dL
  Cl: 102.4 meq/L
  DBIL: 0.076 mg/dL
  GLC: 196 mg/dL
  IP: 9.5 mg/dL
  K: 3.7 meq/L
  LDH: 189 IU/L
  Na: 140.6 meq/L
  PL: 145 mg/dL
  RALB: 3.3 g/dL
  TBIL: 0.1 mg/dL
  TC: 78 mg/dL
  TG: 88.6 mg/dL
  TP: 5.5 g/dL
  gamma-GTP: 1 IU/L
[3]
  TERMINAL_BW: 213.3 g
  APTT: 19 s
  Bas: 0%
  Eos: 1%
  Fbg: 224.8 mg/dL
  Hb: 13 g/dL
  Ht: 38.3%
  Lym: 76.8%
  MCH: 21.2 pg
  MCHC: 34%
  MCV: 62.4 fL
  Mono: 2.4%
  Neu: 19.2%
  PT: 13 s
  Plat: 123.8 x10_4/uL
  RBC: 615 x10_4/ul
  Ret: 6.9%
  WBC: 90.6 x10_2/uL
  KIDNEY_L: 1 g
  KIDNEY_R: 1 g
  KIDNEY_TOTAL: 1.9 g
  LIVER: 9.1 g
  A/G: 1.5
  ALP: 936 IU/L
  ALT: 31.2 IU/L
  AST: 63 IU/L
  BUN: 10 mg/dL
  CRE: 0.4 mg/dL
  Ca: 10.4 mg/dL
  Cl: 102.6 meq/L
  DBIL: 0.062 mg/dL
  GLC: 203.4 mg/dL
  IP: 9.4 mg/dL
  K: 3.6 meq/L
  LDH: 187.2 IU/L
  Na: 141.2 meq/L
  PL: 140 mg/dL
  RALB: 3.3 g/dL
  TBIL: 0.1 mg/dL
  TC: 79.6 mg/dL
  TG: 53.6 mg/dL
  TP: 5.5 g/dL
  gamma-GTP: 1 IU/L
[4]
  TERMINAL_BW: 228.7 g
  APTT: 20.7 s
  Bas: 0%
  Eos: 1%
  Fbg: 226 mg/dL
  Hb: 14 g/dL
  Ht: 41.5%
  Lym: 80.6%
  MCH: 21.8 pg
  MCHC: 33.8%
  MCV: 64.4 fL
  Mono: 2.6%
  Neu: 14.8%
  PT: 12.1 s
  Plat: 126 x10_4/uL
  RBC: 644.2 x10_4/ul
  Ret: 6.6%
  WBC: 105.3 x10_2/uL
  KIDNEY_L: 1 g
  KIDNEY_R: 1 g
  KIDNEY_TOTAL: 2 g
  LIVER: 11.1 g
  A/G: 1.5
  ALP: 936 IU/L
  ALT: 41 IU/L
  AST: 66.8 IU/L
  BUN: 14.4 mg/dL
  CRE: 0.4 mg/dL
  Ca: 10.7 mg/dL
  Cl: 102 meq/L
  DBIL: 0.096 mg/dL
  GLC: 211.6 mg/dL
  IP: 8.1 mg/dL
  K: 3.8 meq/L
  LDH: 183.8 IU/L
  Na: 140.2 meq/L
  PL: 156.6 mg/dL
  RALB: 3.4 g/dL
  TBIL: 0.1 mg/dL
  TC: 81 mg/dL
  TG: 99.2 mg/dL
  TP: 5.7 g/dL
  gamma-GTP: 1.2 IU/L
25 mg/kg, 3 h, dose level Low
  TERMINAL_BW: 217.8 g
  APTT: 19.1 s
  Bas: 0%
  Eos: 1.2%
  Fbg: 211.4 mg/dL
  Hb: 13.1 g/dL
  Ht: 38.9%
  Lym: 83.4%
  MCH: 21.1 pg
  MCHC: 33.5%
  MCV: 62.9 fL
  Mono: 2.4%
  Neu: 12.2%
  PT: 12.4 s
  Plat: 120.2 x10_4/uL
  RBC: 619.2 x10_4/ul
  Ret: 6.9%
  WBC: 89.8 x10_2/uL
  KIDNEY_L: 0.9 g
  KIDNEY_R: 0.9 g
  KIDNEY_TOTAL: 1.9 g
  LIVER: 10.1 g
  A/G: 1.6
  ALP: 855.8 IU/L
  ALT: 33 IU/L
  AST: 66 IU/L
  BUN: 11.2 mg/dL
  CRE: 0.4 mg/dL
  Ca: 10.5 mg/dL
  Cl: 101.8 meq/L
  DBIL: 0.056 mg/dL
  GLC: 202.4 mg/dL
  IP: 9.7 mg/dL
  K: 4 meq/L
  LDH: 212.6 IU/L
  Na: 140.4 meq/L
  PL: 138.4 mg/dL
  RALB: 3.2 g/dL
  TBIL: 0.1 mg/dL
  TC: 77.8 mg/dL
  TG: 61.2 mg/dL
  TP: 5.2 g/dL
  gamma-GTP: 1 IU/L
25 mg/kg, 6 h, dose level Low
  TERMINAL_BW: 214.9 g
  APTT: 19.4 s
  Bas: 0%
  Eos: 1%
  Fbg: 210.6 mg/dL
  Hb: 13.3 g/dL
  Ht: 39.1%
  Lym: 82%
  MCH: 21.4 pg
  MCHC: 33.9%
  MCV: 62.9 fL
  Mono: 2.4%
  Neu: 14%
  PT: 12.7 s
  Plat: 118.7 x10_4/uL
  RBC: 620.4 x10_4/ul
  Ret: 6.7%
  WBC: 82.3 x10_2/uL
  KIDNEY_L: 1 g
  KIDNEY_R: 1 g
  KIDNEY_TOTAL: 2 g
  LIVER: 9.3 g
  A/G: 1.6
  ALP: 885.2 IU/L
  ALT: 31.4 IU/L
  AST: 63.8 IU/L
  BUN: 9.4 mg/dL
  CRE: 0.4 mg/dL
  Ca: 10.2 mg/dL
  Cl: 102.8 meq/L
  DBIL: 0.058 mg/dL
  GLC: 191.2 mg/dL
  IP: 9.5 mg/dL
  K: 3.8 meq/L
  LDH: 224.2 IU/L
  Na: 139.6 meq/L
  PL: 126.8 mg/dL
  RALB: 3.2 g/dL
  TBIL: 0.1 mg/dL
  TC: 66.4 mg/dL
  TG: 52.6 mg/dL
  TP: 5.2 g/dL
  gamma-GTP: 1.6 IU/L
25 mg/kg, 9 h, dose level Low
  TERMINAL_BW: 212.9 g
  APTT: 18.9 s
  Bas: 0%
  Eos: 1%
  Fbg: 228.2 mg/dL
  Hb: 13.4 g/dL
  Ht: 39.3%
  Lym: 71%
  MCH: 21.3 pg
  MCHC: 34%
  MCV: 62.6 fL
  Mono: 2.2%
  Neu: 25.4%
  PT: 12.6 s
  Plat: 125.9 x10_4/uL
  RBC: 629.2 x10_4/ul
  Ret: 6.8%
  WBC: 95.5 x10_2/uL
  KIDNEY_L: 0.9 g
  KIDNEY_R: 0.9 g
  KIDNEY_TOTAL: 1.8 g
  LIVER: 9 g
  A/G: 1.6
  ALP: 842.8 IU/L
  ALT: 33.2 IU/L
  AST: 69.6 IU/L
  BUN: 11.2 mg/dL
  CRE: 0.3 mg/dL
  Ca: 10.5 mg/dL
  Cl: 101.8 meq/L
  DBIL: 0.074 mg/dL
  GLC: 197 mg/dL
  IP: 9.6 mg/dL
  K: 3.7 meq/L
  LDH: 200.6 IU/L
  Na: 141 meq/L
  PL: 123.4 mg/dL
  RALB: 3.4 g/dL
  TBIL: 0.1 mg/dL
  TC: 63.6 mg/dL
  TG: 75.8 mg/dL
  TP: 5.6 g/dL
  gamma-GTP: 0.8 IU/L
25 mg/kg, 24 h, dose level Low
  TERMINAL_BW: 231.8 g
  APTT: 20 s
  Bas: 0%
  Eos: 1%
  Fbg: 234 mg/dL
  Hb: 13.3 g/dL
  Ht: 38.9%
  Lym: 80%
  MCH: 21.7 pg
  MCHC: 34.2%
  MCV: 63.6 fL
  Mono: 3%
  Neu: 15.4%
  PT: 12.7 s
  Plat: 126.9 x10_4/uL
  RBC: 612 x10_4/ul
  Ret: 6.8%
  WBC: 103.2 x10_2/uL
  KIDNEY_L: 1 g
  KIDNEY_R: 1 g
  KIDNEY_TOTAL: 2 g
  LIVER: 11.1 g
  A/G: 1.6
  ALP: 978 IU/L
  ALT: 34.2 IU/L
  AST: 68 IU/L
  BUN: 14.6 mg/dL
  CRE: 0.4 mg/dL
  Ca: 10.6 mg/dL
  Cl: 102.4 meq/L
  DBIL: 0.098 mg/dL
  GLC: 209 mg/dL
  IP: 8.3 mg/dL
  K: 4 meq/L
  LDH: 230.4 IU/L
  Na: 140 meq/L
  PL: 142.8 mg/dL
  RALB: 3.5 g/dL
  TBIL: 0.1 mg/dL
  TC: 67.8 mg/dL
  TG: 122.6 mg/dL
  TP: 5.6 g/dL
  gamma-GTP: 1.4 IU/L
